Experimental findings from ChEMBL document CHEMBL4706566, “New drug approvals for 2019: Synthesis and clinical applications” (Eur J Med Chem, 2020) are described below.

What is called half-life is the time needed for the level to fall by half in the phase considered. Read a high half-life as slow loss. By IC50 is commonly meant the concentration at which inhibition is half-maximal. Read a high IC50 as weaker potency.

One series in a line: clinical. The settings on record: human.
Series [1] concerns the target 5-hydroxytryptamine receptor 2A (Homo sapiens, UniProt P28223).
Description: Antagonist activity at 5HT2A receptor (unknown origin)
Series [2] concerns the target T1, D(2) dopamine receptor (Homo sapiens, UniProt P14416).
Description: Partial agonist activity at presynaptic D2 receptor (unknown origin)
Series [3] has as its target T1, D(2) dopamine receptor. The source holds these as a separate data set.
Description: Antagonist activity at postsynaptic D2 receptor (unknown origin)

T1 sequence (P14416 whole entry): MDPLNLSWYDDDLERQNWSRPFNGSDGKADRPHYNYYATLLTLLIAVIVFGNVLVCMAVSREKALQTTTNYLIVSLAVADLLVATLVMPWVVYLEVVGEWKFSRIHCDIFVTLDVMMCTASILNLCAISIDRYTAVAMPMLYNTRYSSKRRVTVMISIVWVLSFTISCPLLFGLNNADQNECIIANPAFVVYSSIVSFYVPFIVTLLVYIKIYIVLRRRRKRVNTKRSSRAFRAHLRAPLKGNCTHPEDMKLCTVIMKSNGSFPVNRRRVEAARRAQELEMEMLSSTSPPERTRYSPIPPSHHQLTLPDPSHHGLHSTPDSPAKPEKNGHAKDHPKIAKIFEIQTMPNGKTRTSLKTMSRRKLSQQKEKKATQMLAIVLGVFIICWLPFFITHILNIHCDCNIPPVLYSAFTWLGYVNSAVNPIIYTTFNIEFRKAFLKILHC
5-hydroxytryptamine receptor 2A, sequence (P28223 whole entry): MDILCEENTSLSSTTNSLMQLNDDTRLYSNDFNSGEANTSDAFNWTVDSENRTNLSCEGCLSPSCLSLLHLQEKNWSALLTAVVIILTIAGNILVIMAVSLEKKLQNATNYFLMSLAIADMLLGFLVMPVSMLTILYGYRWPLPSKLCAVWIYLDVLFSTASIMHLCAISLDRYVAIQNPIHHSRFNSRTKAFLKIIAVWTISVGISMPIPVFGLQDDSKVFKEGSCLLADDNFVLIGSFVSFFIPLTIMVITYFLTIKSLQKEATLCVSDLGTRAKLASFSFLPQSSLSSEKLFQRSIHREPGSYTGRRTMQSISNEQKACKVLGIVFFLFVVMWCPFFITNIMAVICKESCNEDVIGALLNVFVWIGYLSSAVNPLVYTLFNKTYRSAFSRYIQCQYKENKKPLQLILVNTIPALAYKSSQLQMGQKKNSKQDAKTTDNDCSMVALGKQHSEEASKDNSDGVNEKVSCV

`CCn1c(=O)c2c(nc(/C=C/c3ccc(OC)c(OC)c3)n2C)n(CC)c1=O` [ISTRADEFYLLINE] showed a half-life in “clinical” of 64 h.
Take `CN1CCN2c3c(cccc31)[C@@H]1CN(CCCC(=O)c3ccc(F)cc3)CC[C@@H]12` [LUMATEPERONE]: the IC50 amounted to 0.54 nM in series [1], 4.1 nM at D(2) dopamine receptor [2] and 3.2 nM against D(2) dopamine receptor [3].
